Measurements from patent US12721838B2 (Henry Ford Health System, priority 2020, dated 2026).

Test system: LNCaP-ENR cells
Assay: Soft-agar colony formation assay
Assay type: cell-based, human
Settings: LNCaP-ENR (ERPC) cells, three weeks; DCV at 8 μM
Protocol: Effect of DCV on soft-agar colony formation was also analyzed. LNCaP-ENR cells (10,000 per well in 6-well plates) were plated in 0.3% soft-agar on top of a base layer of 0.6% agar. The cells were treated with DCV and incubated at 37° C. for three weeks in the CO2 incubator. Cells were given fresh media and drug every fourth day. At the end of the incubation period, colonies were stained with 0.025% crystal violet, and pictures of colonies were taken with a Nikon digital camera at ×200. Image processing was done using Q-Capture Pro-7 software. Exemplary methods of the foregoing technique can be found in Sarveswaran, Sivalokanathan et al. “Inhibition of 5-lipoxygenase downregulates stemness and kills prostate cancer stem cells by triggering apoptosis via activation of c-Jun N-terminal kinase.” Oncotarget vol. 10, 4 424-436. 11 Jan. 2019, the disclosure of which is incorporated herein by reference in its entirety.

## COC(=O)N[C@H](C(=O)N1CCC[C@H]1c1nc(-c2ccc(-c3ccc(-c4c[nH]c([C@@H]5CCCN5C(=O)[C@@H](NC(=O)OC)C(C)C)n4)cc3)cc2)c[nH]1)C(C)C [Daclatasvir, 4,4′-bis[2-((2S)-1-{(2S)-2-[(methoxycarbonyl)amino]-3-methylbutanoyl}-2-pyrrolidinyl)-1H-imidazol-4-yl]-1,1′-biphenyl]
  soft-agar colony formation: completely blocked
